How the values were obtained:
spermatozoids [1] = experiment: Number of spermatozoids in mice; format: in vivo
Description: (§1) In the inventors' laboratory, the effect of a synthetic macamide, N-benzyl-5-oxo-6E, 8E-octadecadienamide, has been tested, which had no effect in the count or daily production of spermatozoids (Gonzales, 2006 page 104). […] Most of the biological activity is rather found in the more polar fractions (Gonzales, 2006; 2006a; Valerio & Gonzales, 2005).

Bacillus subtilis = settings: between six sesquiterpene lactones tested; cited from earlier work
spermatozoids [2] = experiment: Count or daily production of spermatozoids (synthetic macamide); format: in vivo; settings: inventors' laboratory (Gonzales, 2006 page 104)
Description: as §1

Compound: CCCCCCCCCCCCCCCC(=O)NCc1ccccc1 [N-benzyl-hexadecanamide]
- effect on the number of spermatozoids (spermatozoids [1]): not been observed

Compound: Fluctuanine
- antibacterial activity (Bacillus subtilis): greatest antibacterial activity

Compound: CCCCCCCCC/C=C/C=C/C(=O)CCCC(=O)NCc1ccccc1 [N-benzyl-5-oxo-6E, 8E-octadecadienamide]
- effect in the count or daily production of spermatozoids (spermatozoids [2]): no effect

Source: patent US7985434B2, “Compositions of atomized or lyophilized maca (Lepidium meyenii) extracts and atomized or lyophilized yacon (Smallanthus sanchifolius) extracts as adjuvants in the treatment of different conditions” (Universidad Peruana Cayetano Heredia, priority 2009, dated 2011)
